These results are taken from PMC12250835, “Novel 3-Methyl-1,6-Diazaphenothiazine as an Anticancer Agent—Synthesis, Structure, and In Vitro Anticancer Evaluation” (Molecules, 2025).

In assay [1] the test system is normal human fibroblasts (HDF). Nature of the assay: WST-1 cell viability assay, HDF. The assay is classed as cell-based. Conditions: for IC50: Homo sapiens, Fibroblast, concentration range 1–100 µM; for reduction in cell viability in comparison to the control: concentrations equal to and above 25 µM, all incubation time points. The protocol: [Worded in the source for another cell line; this cell line is reported under the same test.] (§1) Human A375, C32 amelanotic and COLO829, G361 melanotic melanoma cells, purchased from ATCC (ATCC Manassas, VA, USA), were incubated in a humidified 5% CO2 incubator at 37 °C. The cells were cultured in the recommended medium supplemented with inactivated fetal bovine serum and the following antibiotics: penicillin (100 U/mL), neomycin (10 μg/mL) and amphotericin B (0.25 μg/mL). Treatment with the studied compounds (B6–B10) began 24 h after seeding. The analyzed compound solutions were obtained by diluting stock solutions in a culture medium. The analysis via WST-1 assay was used for compound concentrations ranging from 1 µM to 100 µM. Other studies, concerning the assessment of intracellular GSH levels and apoptosis, were performed on the B8 and B10 derivatives at concentrations of 50 μM and 100 µM.
(§2) The viability of cells was assessed using the cell proliferation reagent WST-1. The reagent is a tetrazolium salt (slightly red) that can be reduced in viable cells to formazan dye (dark red) by mitochondrial dehydrogenases. In the analysis, WST-1 was added to cells cultured in 96-well microplates (10 µL/well) 3 h before the measurement. Absorbance at 440 nm was read using a microplate reader (Infinite 200 PRO, TECAN, Männedorf, Switzerland), and 650 nm was used as the reference wavelength. In the experiment, control samples were normalized to 100%. All the examined samples were calculated as percentages of the control.
A general note: Tetrazolium dyes change colour on reduction, which living cells bring about.

The subject of assay [2] is A375 amelanotic melanoma cells. The assay can be described thus: WST-1 cell viability assay, A375. The assay is classed as cell-based. To be noted: Homo sapiens, A-375, concentration range 1–100 µM. The protocol: as §1, §2
Assay [3] concerns COLO829 melanotic melanoma cells. The assay can be described thus: WST-1 cell viability assay, COLO829. To be noted: Homo sapiens, COLO-829, concentration range 1–100 µM. The assay is classed as cell-based. As for the experimental part:
as §1, §2

The subject of assay [4] is G361 melanotic melanoma cells. The assay can be described thus: WST-1 cell viability assay, G361. The assay is classed as cell-based. Conditions: Homo sapiens, G-361, concentration range 1–100 µM. As for the experimental part:
as §1, §2

Assay [5] relates to C32 amelanotic melanoma cells. Nature of the assay: WST-1 cell viability assay, C32. The assay is classed as cell-based. Conditions: Homo sapiens, concentration range 1–100 µM. As for the experimental part:
as §1, §2

For assay [6], the system named is G361 melanotic melanoma cells. The assay can be described thus: Mitochondrial potential assay (JC-1), G361. The assay is classed as cell-based, human. Conditions: 72 h. As for the experimental part:
as §1
(§3) The mitochondrial potential assay was conducted using fluorescent cationic dye JC-1, which accumulates in the mitochondria in a potential-dependent manner. After cell treatment, samples were suspended in 12.5 µL of solution 7 (JC-1) (ChemoMetec, Lillerød, Denmark) and then incubated at 37 C for 10 min. In the next step, the […] cells were centrifuged for 5 min at 400× g, washed twice with PBS and resuspended in 0.25 mL of solution 8 (DAPI) (ChemoMetec, Lillerød, Denmark). In the last step of sample preparation, cells were loaded into 8-chamber NC-Slides A8™ and analyzed immediately using the mitochondrial potential assay protocol. Scatterplots of the obtained results were used to demarcate the percentage of cells with a different mitochondrial membrane potential.

Assay [7] has as its system G361 melanotic melanoma cells. Nature of the assay: DNA fragmentation assay, G361. To be noted: G361, 100 µM, 72 h. The assay is classed as cell-based, human. As for the experimental part:
as §1
(§4) For the DNA fragmentation assay, cells were fixed with 70% cold ethanol (24 h at 0–4 °C). In the next step of the analysis, the cell samples were washed with PBS, centrifuged, and stained with solution 3 (ChemoMetec, Lillerød, Denmark) containing DAPI and 0.1% triton X-100 in PBS. The analysis was conducted according to the DNA fragmentation assay protocol.

The subject of assay [8] is C32 amelanotic melanoma cells. Nature of the assay: Mitochondrial potential assay (JC-1), C32. The assay is classed as cell-based, human. Conditions: 72 h. The protocol: as §1, §3
For assay [9], the system named is G361 melanotic melanoma cells. The assay can be described thus: Vitality assay, intracellular GSH level, G361. The assay is classed as cell-based, human. Conditions: 72 h. The protocol: as §1
(§5) All the experiments were performed using the fluorescence image cytometer NucleoCounter® NC-3000™ (ChemoMetec, Lillerød, Denmark). For the vitality assay, treatment cells were stained with solution 5 according to the manufacturer’s protocol and analysis was conducted using NucleoView NC-3000 software 2.1.25.12 (ChemoMetec, Lillerød, Denmark) according to the vitality assay protocol.

Assay [10] concerns C32 amelanotic melanoma cells. The assay can be described thus: DNA fragmentation assay, C32. To be noted: 72 h. The assay is classed as cell-based, human. The protocol: as §1, §4
For assay [11], the system named is C32 amelanotic melanoma cells. Nature of the assay: Vitality assay, intracellular GSH level, C32. The assay is classed as cell-based, human. To be noted: 72 h. As for the experimental part:
as §1, §5

The test system of assay [12] is COLO829 cells. Details: method as in PMID 31410885. Conditions: 50 µM, 72 h incubation; cited from earlier work.
Assay [13] has as its system C32 cells. Details: method as in PMID 31432325. To be noted: 50 µM, 72 h incubation; cited from earlier work.

As a reminder, the IC50 is the concentration needed to halve the response being measured. The low end stands for greater potency in that assay, the high end for weaker potency in that assay. For `Cc1cnc2c(c1)Sc1ncccc1N2` [B6, 10H-3-methyl-1,6-diazaphenothiazine], the IC50 in assay [1] (24 h exposure) amounted to 83.1 µM; in assay [1] (48 h exposure), 40.1 µM; in [1] (72 h exposure), 31.9 µM; in assay [2] (A375, 24 h exposure) it was 226 µM; in [2] (A375, 48 h exposure) it was 97.9 µM; in [2] (A375, 72 h exposure) it was 40 µM. Further, the IC50 in assay [3] (COLO829, 24 h exposure) is 262 µM; in [3] (COLO829, 48 h exposure) it was 59 µM; in assay [3] (COLO829, 72 h exposure), 30.2 µM; in assay [4] (G361, 24 h exposure) it was 134 µM; in assay [4] (G361, 48 h exposure), 56.2 µM; in assay [4] (G361, 72 h exposure), 22.9 µM. In addition, the IC50 in assay [5] (C32, 24 h exposure) stood at 94.3 µM; in assay [5] (C32, 48 h exposure), 76.1 µM; in assay [5] (C32, 72 h exposure), 18.1 µM. Further, in assay [1], the “reduction in cell viability in comparison to the control” value (“reduction in cell viability” for short) is over 20%.
Consider `Cc1cnc2c(c1)Sc1ncccc1N2C` [B7, 3,10-dimethyl-1,6-diazaphenothiazine], for which the IC50 in [1] (24 h exposure) was 55.4 µM; in [1] (48 h exposure), 31.7 µM; in assay [1] (72 h exposure), 30.5 µM; in assay [2] (A375, 24 h exposure), 235 µM; in [2] (A375, 48 h exposure), 99.5 µM; in [2] (A375, 72 h exposure) it was 17.6 µM. The half-maximal inhibitory concentration (IC50) in assay [3] (COLO829, 24 h exposure) was 292 µM; in [3] (COLO829, 48 h exposure), 64.8 µM; in assay [3] (COLO829, 72 h exposure), 35.5 µM; in assay [4] (G361, 24 h exposure) it was 194 µM; in assay [4] (G361, 48 h exposure) it was 75.4 µM; in [4] (G361, 72 h exposure), 41.6 µM. Besides, the IC50 in assay [5] (C32, 24 h exposure) is 91.4 µM; in assay [5] (C32, 48 h exposure), 89.7 µM; in assay [5] (C32, 72 h exposure) it was 22.2 µM. In assay [1], the “reduction in cell viability” value is given as over 20%.
Regarding `C=CCN1c2cccnc2Sc2cc(C)cnc21` [B8, 3-metyhl-10-allyl-1,6-diazaphenothiazine], in assay [1] (75 µM and 100 µM, 48 h and 72 h of incubation), the “viability reduction in comparison to the control” value is over 20%. Further, the IC50 in assay [1] (48 h exposure) was determined as 142 µM; in assay [1] (72 h exposure) it was 125 µM; in assay [2] (A375, 24 h exposure), 393 µM; in assay [2] (A375, 48 h exposure) it was 166 µM; in assay [2] (A375, 72 h exposure) it was 91.2 µM; in assay [3] (COLO829, 24 h exposure) it was 220 µM. In addition, the IC50 is 64.1 µM in assay [3] (COLO829, 48 h exposure); 31.4 µM in assay [3] (COLO829, 72 h exposure); 168 µM in [4] (G361, 24 h exposure); 79.9 µM in assay [4] (G361, 48 h exposure); 24.6 µM in assay [4] (G361, 72 h exposure); 129 µM in assay [5] (C32, 24 h exposure). For the same compound, the IC50 in [5] (C32, 48 h exposure) was 105 µM; in assay [5] (C32, 72 h exposure) it was 59.6 µM. The “depolarized (early apoptotic) cells (Q1lr)” value in assay [6] (G361, 50 µM) came out at 13%; in assay [6] (G361, 100 µM), 26%. Besides, the “cells with fragmented DNA (M1)” value in [7] is given as 12%; in [10] (C32, 50 µM), 11%; in assay [10] (C32, 100 µM) it was 22%. For the same compound, the “depolarized cells, decreased mitochondrial membrane potential (Q1lr)” value was found to be 18% in assay [8] (C32, 50 µM) and 25% in assay [8] (C32, 100 µM). For the same compound, the “cells with low GSH levels (Q1ll, GSH-depleted cells)” value turned out to be 21% in [9] (G361, 50 µM); 33% in assay [9] (G361, 100 µM); 20% in assay [11] (C32, 50 µM); 36% in assay [11] (C32, 100 µM).
`C#CCN1c2cccnc2Sc2cc(C)cnc21` [B9, 3-methyl-10-propargyl-1,6-diazaphenothiazine]: the IC50 is 57.4 µM in assay [1] (24 h exposure); 22.2 µM in [1] (48 h exposure); 11.3 µM in assay [1] (72 h exposure); 698 µM in [2] (A375, 24 h exposure); 171 µM in [2] (A375, 48 h exposure); 138 µM in assay [2] (A375, 72 h exposure). For the same compound, the IC50 in assay [3] (COLO829, 24 h exposure) came out at 136 µM; in assay [3] (COLO829, 48 h exposure), 61.5 µM; in assay [3] (COLO829, 72 h exposure), 49.5 µM; in assay [4] (G361, 24 h exposure), 116 µM; in [4] (G361, 48 h exposure) it was 97 µM; in [4] (G361, 72 h exposure) it was 57 µM. For the same compound, the IC50 in [5] (C32, 24 h exposure) came out at 120 µM; in assay [5] (C32, 48 h exposure), 167 µM; in assay [5] (C32, 72 h exposure), 66.4 µM. Moreover, in [1], the “reduction in cell viability” value was over 20%.
Consider `Cc1cnc2c(c1)Sc1ncccc1N2Cc1ccccc1` [B10, 3-methyl-10-benzyl-1,6-diazaphenothiazine], for which the IC50 was 1930 µM in [1] (24 h exposure); 932 µM in [1] (48 h exposure); 656 µM in [1] (72 h exposure); 511 µM in assay [2] (A375, 24 h exposure); 109 µM in assay [2] (A375, 48 h exposure); 60.4 µM in assay [2] (A375, 72 h exposure). For the same compound, the IC50 in assay [3] (COLO829, 24 h exposure) came out at 178 µM; in assay [3] (COLO829, 48 h exposure), 75.5 µM; in assay [3] (COLO829, 72 h exposure) it was 37 µM; in assay [4] (G361, 24 h exposure) it was 132 µM; in assay [4] (G361, 48 h exposure), 100 µM; in assay [4] (G361, 72 h exposure) it was 43 µM. Also, the IC50 in assay [5] (C32, 24 h exposure) is 95.8 µM; in assay [5] (C32, 48 h exposure), 87 µM; in [5] (C32, 72 h exposure), 42.7 µM. In [1] (at any measurement point (1–100 µM; 24 h, 48 h, 72 h)), the “decrease of viability of cells” value is on record as at most 10%. Moreover, the “depolarized (early apoptotic) cells (Q1lr)” value in [6] (G361, 50 µM) is listed as 6%; in assay [6] (G361, 100 µM), 17%. For the same compound, the “cells with fragmented DNA (M1)” value stood at 10% in assay [7] and 10% in assay [10] (C32, 100 µM). In addition, the “depolarized cells, decreased mitochondrial membrane potential (Q1lr)” value in assay [8] (C32, 50 µM) was 15%; in assay [8] (C32, 100 µM), 21%. Moreover, the “cells with low GSH levels (Q1ll, GSH-depleted cells)” value was 13% in assay [9] (G361, 50 µM); 25% in assay [9] (G361, 100 µM); 12% in assay [11] (C32, 50 µM); 22% in assay [11] (C32, 100 µM).
As to `CN(C)/N=N/c1[nH]cnc1C(N)=O` [dacarbazine], the “maximum reduction in COLO829 cell viability” value in assay [12] is recorded as “about 25%”. Further, the “reduction in C32 cell viability (the analyzed parameter)” value in [13] is “about 50%”.
